# Assay results: patent publication US20080319083A1, “MEDICINE FOR TRANSNASAL ADMINISTRATION” (priority 2006, published 2008)
# Structures can show the parent of a compound that is named as a salt. Where two headings read alike, the source gives them in different places.
# Legend:
# [1] = Transnasal administration experiment in closed system, plasma pharmacokinetics (Test Example 1)
# Description: To 100 μL of plasma was added 300 μL of NH4Cl (pH 9), and the mixture was stirred for 30 seconds. Then, 500 μL of chloroform/2-isopropanol/n-heptane (60/14/26) was added, and the mixture was shaken for 2 minutes and centrifuged (4° C., 15,000 rpm, 5 min).
# The chloroform layer (lower layer) obtained by centrifugation was transferred to another microtube, and the solvent was removed with flowing nitrogen. All the solvents were removed, and the extract was dissolved in 100 μL of a buffer used as a mobile phase for HPLC. Then, the solution was dispensed into a glass tube and injected to HPLC in an amount of 30 μL to measure the concentration of milnacipran hydrochloride.
# The intravenous maximum plasma concentration (Cmax), maximum plasma concentration time (Tmax), area under the plasma concentration-time curve (AUC) and absorption ratio (F) were calculated. The area under the plasma concentration-time curve (AUC) was calculated from the trapezoid formula AUC represents an integrated value of the concentrations of plasma milnacipran absorbed and transferred to blood.
# The obtained data was analyzed based on the nonlinear least-squares method program (algorithm: Damping Gauss-Newton method). AUC, MRT, MAT were derived from moment analysis. Meanwhile, the relative rate of the retention in the nasal cavity was evaluated by Formula (1) below.
# A solution of urethane in isotonic sodium chloride solution (dosage 1.0 g/kg, 25 w/v %) was administered intraperitoneally to Wistar male rats, and the rats were anaesthetized: Each rat was fixed on a fixed base in a face-up position, and then the airway and esophagus surgeries was performed on the rat in according to the method of Hirai et. al (J. Pharm. Sci. 69:1411-1413 (1980)) to thereby expose the left and right jugular veins. The solution of milnacipran hydrochloride in isotonic sodium chloride solution was administered to the left the nasal cavity using a microsyringe, the top of which was attached to a silicone tube (dosage 20 mg/kg, concentration 100 mg/mL). Blood was corrected over time from the right jugular using a syringe previously treated with heparin. The blood samples were collected in an amount of 0.2 mL per injection, just 0 minute before transnasal administration, and 5, 10, 20, 30, 60, 90, 120, 180, 240, 300 and 360 minutes after the transnasal administration respectively. The collected blood samples were immediately centrifuged at 4° C. and 15,000 rpm (17,860 g) for 5 minutes, to thereby yield plasma samples (0.1 mL).
# [2] = Transnasal administration experiment in opened system, plasma pharmacokinetics (Test Example 1); type: in vivo, Wistar male rats
# Source text: AUC, MRT, MAT were derived from moment analysis. […] Each rat was fixed in a face-up position on a fixed base, and the right jugular vein was exposed to insert a catheter. After the nib of the catheter was indwelled in the atrium dextrum, the opened regions of the right jugular vein was sutured together using the medical suture thread with an attached needle (17 mm, angle ½ black nylon 5-0, Matsuda Sutures). After the sufficient recovery period, each rat was used for experiments. To the rats with the jugular vein catheterization, prepared by the above-described “1. […] Blood was collected via catheter over time using an injection syringe previously treated with heparin. […] After recovering from diethylether anesthesia, the rats was placed in gauges.
# [3] = in vivo; parameters: species or system Wistar male rats; settings: male, Wistar, rat, iv, 20 mg/kg
# Description: Each rat was fixed in a face-up position on a fixed base, and the left and right jugular veins were exposed to collect blood. The rats underwent an operation of the airway and esophagus to adjust the physiological conditions to the same conditions as those of the intranasal administration test, and the above-prepared isotonic sodium chloride solution containing milnacipran hydrochloride (dosage 20 mg/kg, concentration 20 mg/mL) was administered from the right jugular vein, followed by collection of blood using an injection syringe previously treated with heparin with time in an amount of 200 μL per injection. […] The obtained data was analyzed based on the moment analysis to calculate the area under the plasma concentration-time curve (AUC), mean residence time (MRT), and mean absorption time (MAT). The cumulative absorption profile of milnacipran hydrochloride was calculated by the deconvolution method based on kinetic parameters determined from the intravenous administration test for an input function and based on plasma levels after intraduodenal or intranasal administration for an output function.
# [4] = In vivo intranasal administration test of milnacipran hydrochloride (Test Example 2); parameters: species or system Wistar male rats
# Description: Each rat was fixed in a face-up position on a fixed base and underwent an operation of the airway and esophagus to adjust the physiological conditions to the same conditions as those of the intravenous administration test, to thereby expose the left and right jugular veins. […] An injection syringe previously treated with heparin was used to collect blood from the right jugular vein over time.
# The cumulative absorption profile of milnacipran hydrochloride was determined by the deconvolution method using kinetic parameters determined from the intravenous administration test as an input function and plasma levels after transnasal administration as an output function.
# [5] = In vivo intravenous administration test of milnacipran hydrochloride (Test Example 2); parameters: species or system Wistar male rats
# Source text: Each rat was fixed in a face-up position on a fixed base and underwent an operation of the airway and esophagus, to thereby expose the left and right jugular veins. […]
# [6] = In vivo intranasal administration test of milnacipran hydrochloride (Test Example 3); parameters: species or system Wistar male rats; settings: i.n. 20 mg/kg
# Description: Each rat was fixed in a face-up position on a fixed base, and the left and right jugular veins were exposed to collect blood. […] The time of intranasal administration was defined as 0 minutes, and blood samples were collected using an injection syringe previously treated with heparin with time in an amount of 200 μL per injection.
# The obtained data was analyzed based on the moment analysis to calculate the area under the plasma concentration-time curve (AUC), mean residence time (MRT), and mean absorption time (MAT). The cumulative absorption profile of milnacipran hydrochloride was calculated by the deconvolution method based on kinetic parameters determined from the intravenous administration test for an input function and based on plasma levels after intraduodenal or intranasal administration for an output function.
# [7] = In vivo intraduodenal administration test of milnacipran hydrochloride (Test Example 3); parameters: species or system Wistar male rats; settings: rat
# Description: Each rat was fixed in a face-up position on a fixed base, and the left and right jugular veins were exposed to collect blood. The abdominal cavity was incised to take the duodenum out, and the downstream portion of the duodenum was ligated, followed by direct administration of the above-prepared isotonic sodium chloride solution containing milnacipran hydrochloride (dosage 20 mg/kg, concentration 20 mg/mL) to the duodenum from the upstream portion. The time of duodenum administration was defined as 0 minutes, and blood samples were collected using an injection syringe previously treated with heparin with time in an amount of 200 μL per injection. […] The obtained data was analyzed based on the moment analysis to calculate the area under the plasma concentration-time curve (AUC), mean residence time (MRT), and mean absorption time (MAT). The cumulative absorption profile of milnacipran hydrochloride was calculated by the deconvolution method based on kinetic parameters determined from the intravenous administration test for an input function and based on plasma levels after intraduodenal or intranasal administration for an output function.
# [8] = Evaluation of transfer of milnacipran hydrochloride to central nerve system, CSF concentration (Test Example 4); parameters: species or system Wistar male rats; settings: in vivo
# Description: As an indicator of transfer to the central nerve system, the concentration of a drug in a cerebrospinal fluid (CSF) was measured. The same operations and administrations as Test Example 3 (in vivo mucosal absorption experiment) were performed (n=3) for intravenous administration, intraduodenal administration, and intranasal administration. Then, blood was collected with time from the jugular vein, and after a given length of time, CSF was collected. An injection needle previously cut was adhered to a silicon tube to prepare an instrument, the other end of which was connected to a syringe, and after a given length of time following drug administration, a puncture was made ventrally from the top of the back of the head of a rat to a depth of 5 to 6 mm with the top of the injection needle. Then, the syringe was drawn to collect CSF in an amount of about 200 μL in the silicon tube.
# The obtained data was analyzed based on the moment analysis to calculate the area under the cerebrospinal fluid concentration-time curve (AUCCSF). The AUCCSF represents an integrated value of concentrations of milnacipran in CFS, absorbed and transferred to the brain. Transfer of a drug from the general circulation to CSF is controlled by permeation through a blood-brain barrier and is greatly affected by the concentration of the drug in blood. Therefore, in order to consider the effect of permeation through a blood-brain barrier, brain transfer was evaluated by comparing ratios of the concentrations in CSF to the protein unbound drug concentration in plasma at the time of collection of CSF. Meanwhile, the brain transfer ratio (Kpu) was calculated from an area under the CSF concentration-time curve, an area under the plasma concentration-time curve, and a plasma protein unbinding ratio (following Formula 3). A significant test was performed based on the Tukey-Kramer multiple comparison. Note that AUCplasma represents an integrated value of the plasma concentrations of milnacipran absorbed and transferred to blood.
# [9] = male, Wistar, rat, in vivo, inhaled or intranasal, 20 mg/kg
# [10] = male, Wistar, in vivo, inhaled or intranasal, rat plasma, transnasal 20 mg/kg, opened system
# [11] = male, Wistar, rat, in vivo, iv, 20 mg/kg
# [12] = male, Wistar, in vivo, inhaled or intranasal, rat plasma
# [13] = male, Wistar, in vivo, 20 mg/kg
# [14] = male, Wistar, rat, iv, 20 mg/kg
compound,measurement,setting,value
"CCN(CC)C(=O)C1(c2ccccc2)CC1CN (racemic) [milnacipran hydrochloride, cis-(±)-2-(aminomethyl)-N,N-diethyl-1-phenyl-cyclopropanecarboxyamide]",AUC(0-inf),[1]; [9],8.4 µg·h/mL
same,Cmax,[1]; [9],5.12 µg/mL
same,Tmax,[1]; [9],0.333 h
same,MRT inf,"[1]; male, Wistar, rat, in vivo, inhaled or intranasal, 20 mg/kg, MRT∞, rat plasma, transnasal 20 mg/kg, closed system",1.88 h
same,MRT∞,"[1]; rat plasma, transnasal 20 mg/kg, closed system, listed as Control",1.62 h
same,F∞,"[1]; rat, transnasal 20 mg/kg, closed system, vs i.v. 20 mg/kg",84.9%
same,AUC(0-inf),[2]; [10],6.12 µg·h/mL
same,Cmax,[2]; [10],3.04 µg/mL
same,MRT inf,[2]; [10],1.77 h
same,Tmax,[2]; [10],0.333 h
same,Fo/Fc (relative rate of the retention in the nasal cavity),"[2]; male, Wistar, rat, in vivo",72.8%
same,F∞,"[2]; rat, transnasal 20 mg/kg, opened system",61.9%
same,AUC(0-inf),[3],9.89 µg·h/mL
same,MRT inf,[3],1.34 h
same,AUC(0-inf),"[4]; male, Wistar, in vivo, inhaled or intranasal, rat plasma, i.n. 10 mg/kg",4.77 µg·h/mL
same,AUC(0-t),"[4]; male, Wistar, in vivo, inhaled or intranasal, rat plasma, i.n. 10 mg/kg, 0 to 7 hours, read-out: AUC0-7 (converted)",4.38 µg·h/mL
same,Tmax,"[4]; male, Wistar, in vivo, rat plasma, i.n. 10 mg/kg",0.333 h
same,Cmax,"[4]; male, Wistar, in vivo, rat plasma, i.n. 10 mg/kg, 50 mg/mL (Example 5)",5.27 µg/mL
same,F0-7,"[4]; rat, i.n. 10 mg/kg vs i.v. 20 mg/kg, 0 to 7 hours",90.41%
same,AUC(0-inf),[5]; [11],9.68 µg·h/mL
same,AUC(0-t),[5]; [11],9.43 µg·h/mL
same,Vd,[5]; [11],0.123 L
same,clearance,[5]; [11],2.69 mL/min
same,B,"[5]; rat plasma, i.v. 20 mg/kg",5580.51 ng/mL
same,t1/2α,"[5]; rat plasma, i.v. 20 mg/kg",6.221 min
same,t1/2β,"[5]; rat plasma, i.v. 20 mg/kg",1.0709 h
same,α,"[5]; rat plasma, i.v. 20 mg/kg",0.1114 min⁻¹
same,β,"[5]; rat plasma, i.v. 20 mg/kg",0.01079 min⁻¹
same,A,"[5]; rat plasma, i.v. 20 mg/kg, two-compartment parameter",7085.09 ng/mL
same,V1,"[5]; rat, i.v. 20 mg/kg",67.74 mL
same,V2,"[5]; rat, i.v. 20 mg/kg",55.64 mL
same,k10,"[5]; rat, i.v. 20 mg/kg",0.0218 min⁻¹
same,k12,"[5]; rat, i.v. 20 mg/kg",0.0453 min⁻¹
same,k21,"[5]; rat, i.v. 20 mg/kg",0.0551 min⁻¹
same,AUC(0-inf),[6]; [12],8.4 µg·h/mL
same,Cmax,[6]; [12],5.12 µg/mL
same,MRT inf,[6]; [12],1.62 h
same,Tmax,[6]; [12],0.333 h
same,F∞,[6]; rat,84.9%
same,AUC(0-inf),[7]; [13],7 µg·h/mL
same,Cmax,[7]; [13],3.07 µg/mL
same,MRT inf,[7]; [13],1.89 h
same,Tmax,[7]; [13],1 h
same,F∞,[7]; i.d. 20 mg/kg,70.8%
same,Cmax,"[8]; male, Wistar, inhaled or intranasal, rat CSF, i.n. 20 mg/kg, read-out: Cmax (maximum CSF concentration)",4.02 µg/mL
same,Tmax,"[8]; male, Wistar, inhaled or intranasal, rat CSF, i.n. 20 mg/kg, read-out: Tmax (time-to-maximum CSF concentration) (converted)",0.333 h
same,AUC,"[8]; male, Wistar, inhaled or intranasal, rat plasma, i.n. 20 mg/kg, read-out: AUCPlasma (converted)",8.4 µg·h/mL
same,AUC,"[8]; male, Wistar, rat, 20 mg/kg",7 µg·h/mL
same,Cmax,"[8]; male, Wistar, rat, 20 mg/kg",1.01 µg/mL
same,Tmax,"[8]; male, Wistar, rat, 20 mg/kg",1 h
same,ratio of plasma concentration and CSF concentration,"[8]; male, Wistar, rat, 20 mg/kg",significantly increased up to 30 minutes after administration
same,AUC,[8]; [14],9.89 µg·h/mL
same,AUCCSF,[8]; [14],13727.9 ng·min/mL
same,Cmax,[8]; [14],2.22 µg/mL
same,Tmax,[8]; [14],0.167 h
same,Kp,"[8]; male, Wistar, rat, iv, 20 mg/kg, Kpu (brain transfer ratio)",0.028
same,CSF Cmax in intranasal administration relative to intraduodenal administration,"[8]; rat, 20 mg/kg",four times larger than that in intraduodenal administration
same,CSF Cmax in intranasal administration relative to intravenous administration,"[8]; rat, 20 mg/kg",twice larger than that in intravenous administration
same,ratio of plasma concentration and CSF concentration,"[8]; rat, 20 mg/kg",almost constant
